Measured values from patent publication US10023591B2, “Heterocyclic derivatives and use thereof” (C&C RESEARCH LABORATORIES, priority 2014, dated 2018).

Assays:
[1] = tested on: NCI-N87 stomach cancer cell line; assay: Cell growth inhibition assay, NCI-N87 (CellTiter-Glo); assay type: cell-based; settings: Homo sapiens; NCI-N87, 5,000 cells/well, 96 hours
Summary of the method: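 Cells seeded at 3,000 (DU-145), 5,000 (NCI-N87) or 10,000 (LNCaP, MDA-MB-468) per well, LNCaP in medium with 10 ng/mL IL-6. Serially diluted compound for 96 h at 37 °C (MDA-MB-468 in air, others 5% CO2); viability by CellTiter-Glo luminescence versus 0.1% DMSO wells.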

STAT1 = STAT1 reporter gene assay (luciferase), U2OS stable cell line pGL4-STAT1-TA-luc, IFN-γ stimulation; assay type: cell-based, human; settings: Homo sapiens, IFN-γ 50 ng/mL, 8 hours, read-out: IC50 (μM) pSTAT1
Summary of the method: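 U2OS cells stably carrying a STAT1-driven luciferase reporter were treated with serially diluted compounds plus IFN-γ (50 ng/mL final) for 8 h at 37 °C in 10% FBS medium. Luciferase read after lysis; parallel plate assessed for cytotoxicity by CellTiter-Glo.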

STAT3 = STAT3 reporter gene assay (luciferase), LNCaP stable cell line pSTAT3-TA-luc, IL-6 stimulation; assay type: cell-based, human; settings: Homo sapiens
Summary of the method: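 LNCaP cells stably carrying pSTAT3-TA-luc were plated 24 h in 3% DCC-FBS medium, then given compound followed by IL-6 (10 ng/mL final) for 24 h at 37 °C. Luciferase was read from lysates, with CellTiter-Glo viability on a duplicate plate. Stimulated 0.1% DMSO wells served as uninhibited control.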

[2] = tested on: LNCaP prostate cancer cell line; assay: Cell growth inhibition assay, LNCaP (CellTiter-Glo); assay type: cell-based; settings: Homo sapiens; LNCaP, 10,000 cells/well, medium with 10 ng/mL IL-6, 96 hours
Experimental: (§1) The inhibitory effects of the compounds of the present invention against the growth of cancer cells were evaluated as shown below. The cancer cell lines including prostate cancer cell lines (LNCaP, DU-145), stomach cancer cell line (NCI-N87), and breast cancer cell lines (MDA-MB-468) were cultured under the protocol provided by each supplier. A medium supplemented with 10 ng/mL of IL-6 was used for LNCaP, a prostate cancer cell line, when treated with a drug. Each type of cells to be used in experiments was sub-cultured in a 96-well plate by counting the exact number of cells using Tali™ Image-based Cytometer (Life Technologies). In a 96-well plate, DU-145 was employed with 3,000 cells/well; NCI-N87 was employed with 5,000 cells/well; and LNCaP and MDA-MB-468 were employed with 10,000 cells/well. The cells were treated with the compounds listed in Examples which were diluted in various concentrations. Upon completion of the compounds treatment, LNCaP, DU-145, NCI-N87 cells were cultured at 37° C. under 5% CO2 for 96 hours, and MDA-MB-468 cells were cultured at 37° C. in air for 96 hours. Subsequently, the cells were observed under microscope and drug precipitation and particular findings were investigated and recorded. And then, the 96-well plate was placed at room temperature for 30 minutes, added with 20 pt/well of CellTiter-Glo solution (Cat No. G7573, Promega) and shaken for 10 minutes, followed by being subjected to the measurement using PHERAstar™ microplate reader (BMG LABTECH) according to the supplier's general luminometer protocol. Wells where only culture liquid added without cell plating were used as a negative control, whereas wells where culture liquid containing 0.1% DMSO instead of the compounds listed in Examples were used as a positive control.

[3] = tested on: DU-145 prostate cancer cell line; assay: Cell growth inhibition assay, DU-145 (CellTiter-Glo); assay type: cell-based; settings: Homo sapiens; DU-145, 3,000 cells/well, 96 hours
Experimental: as §1

[4] = tested on: MDA-MB-468 breast cancer cell line; assay: Cell growth inhibition assay, MDA-MB-468 (CellTiter-Glo); assay type: cell-based; settings: Homo sapiens, MDA-MB-468, 96 hours
Experimental: as §1

SMILES | IC50 [1] | IC50 (STAT1) | IC50 (STAT3) | IC50 [2] | IC50 [3] | IC50 [4]
CC(C)(c1ccc2sc(C(=O)Nc3cc(Cl)nc(Oc4ccc(Cl)cc4F)c3)cc2c1)S(C)(=O)=O [Example 83, N-(2-chloro-6-(4-chloro-2-fluorophenoxy)pyridin-4-yl)-5-(2-(methylsulfonyl)propan-2-yl)benzo[b]thiophene-2-carboxamide] | 0.02 µM | > 50 µM | 0.0082 µM | – | – | 0.0052 µM
CC(C)(c1ccc2sc(C(=O)Nc3cc(Cl)nc(Oc4ccc(OC(F)(F)F)cc4)c3)cc2c1)S(C)(=O)=O [Example 84, N-(2-chloro-6-(4-(trifluoromethoxy)phenoxy)pyridin-4-yl)-5-(2-(methylsulfonyl)propan-2-yl)benzo[b]thiophene-2-carboxamide] | 0.02 µM | > 50 µM | 0.0065 µM | – | – | 0.0026 µM
CC(C)(c1ccc(Cl)cc1)c1cc(NC(=O)c2cc3cc(C(C)(C)S(C)(=O)=O)ccc3s2)n(C(C)(C)C)n1 [Example 88, N-(1-(tert-butyl)-3-(2-(4-chlorophenyl)propan-2-yl)-1H-pyrazol-5-yl)-5-(2-(methylsulfonyl)propan-2-yl)benzo[b]thiophene-2-carboxamide] | – | > 50 µM | > 10 µM | > 1.1 µM | > 1.1 µM | –
CC(C)(c1ccc(Cl)cc1)c1cc(NC(=O)c2cc3cc(C(C)(C)S(C)(=O)=O)ccc3s2)[nH]n1 [Example 89, N-(3-(2-(4-chlorophenyl)propan-2-yl)-1H-pyrazol-5-yl)-5-(2-(methylsulfonyl)propan-2-yl)benzo[b]thiophene-2-carboxamide] | – | > 50 µM | 0.14 µM | 0.24 µM | 0.11 µM | –
CC(C)(C)OC(=O)NCCOc1cc(NC(=O)c2cc3cc(C(C)(C)S(C)(=O)=O)ccc3s2)cc(Oc2ccc(Cl)cc2)c1 [Example 93, tert-butyl (2-(3-(4-chlorophenoxy)-5-(5-(2-(methylsulfonyl)propan-2-yl)benzo[b]thiophene-2-carboxamido)phenoxy)ethyl)carbamate] | – | > 50 µM | 0.072 µM | 0.26 µM | 0.1 µM | –
CC(C)(c1ccc2sc(C(=O)Nc3cc(Cl)cc(C4(c5ccc(Cl)cc5)CC4)c3)cc2c1)S(C)(=O)=O [Example 97, N-(3-chloro-5-(1-(4-chlorophenyl)cyclopropyl)phenyl)-5-(2-(methylsulfonyl)propan-2-yl)benzo[b]thiophene-2-carboxamide] | – | > 50 µM | 0.025 µM | 0.028 µM | 0.016 µM | –
CN(c1cc(Cl)cc(NC(=O)c2cc3cc(C(C)(C)S(C)(=O)=O)ccc3s2)c1)c1ccc(F)cc1F [Example 98, N-(3-chloro-5-((2,4-difluorophenyl)(methyl)amino)phenyl)-5-(2-(methylsulfonyl)propan-2-yl)benzo[b]thiophene-2-carboxamide] | – | > 50 µM | 0.031 µM | 0.031 µM | 0.0066 µM | –
CN(c1ccc(Cl)cc1)c1cc(Cl)cc(NC(=O)c2cc3cc(C(C)(C)S(C)(=O)=O)ccc3s2)c1 [Example 99, N-(3-chloro-5-((4-chlorophenyl)(methyl)amino)phenyl)-5-(2-(methylsulfonyl)propan-2-yl)benzo[b]thiophene-2-carboxamide] | – | > 50 µM | 0.11 µM | 0.14 µM | 0.046 µM | –
CN(c1ccc(Cl)cc1)c1cc(NC(=O)c2cc3cc(C(C)(C)S(C)(=O)=O)ccc3s2)cc(Cl)n1 [Example 100, N-(2-chloro-6-((4-chlorophenyl)(methyl)amino)pyridin-4-yl)-5-(2-(methylsulfonyl)propan-2-yl)benzo[b]thiophene-2-carboxamide] | – | > 50 µM | 0.07 µM | 0.14 µM | 0.026 µM | –

The next lines start with the values.

IC50 [1] | IC50 (STAT1) | IC50 (STAT3) | IC50 [2] | IC50 [3] | IC50 [4] | SMILES
0.021 µM | > 50 µM | 0.0084 µM | 0.047 µM | 0.0053 µM | – | CC(C)(c1ccc2sc(C(=O)Nc3cc(Cl)nc(Oc4ccc(C(F)(F)F)cc4)c3)cc2c1)S(C)(=O)=O [Example 67, N-(2-chloro-6-(4-(trifluoromethyl)phenoxy)pyridin-4-yl)-5-(2-(methylsulfonyl)propan-2-yl)benzo[b]thiophene-2-carboxamide]
0.02 µM | > 50 µM | 0.011 µM | – | – | 0.0056 µM | CC(C)(c1ccc2sc(C(=O)Nc3cc(Cl)nc(Oc4ccc(F)c(Cl)c4)c3)cc2c1)S(C)(=O)=O [Example 71, N-(2-chloro-6-(3-chloro-4-fluorophenoxy)pyridin-4-yl)-5-(2-(methylsulfonyl)propan-2-yl)benzo[b]thiophene-2-carboxamide]
0.021 µM | > 50 µM | 0.01 µM | – | – | 0.004 µM | CC(C)(c1ccc2sc(C(=O)Nc3cc(Cl)nc(Oc4ccc(Cl)c(F)c4)c3)cc2c1)S(C)(=O)=O [Example 72, N-(2-chloro-6-(4-chloro-3-fluorophenoxy)pyridin-4-yl)-5-(2-(methylsulfonyl)propan-2-yl)benzo[b]thiophene-2-carboxamide]
0.043 µM | > 50 µM | 0.041 µM | – | – | 0.0074 µM | CC(C)(c1ccc2sc(C(=O)Nc3cc(Cl)nc(Oc4ccc(F)c(F)c4)c3)cc2c1)S(C)(=O)=O [Example 79, N-(2-chloro-6-(3,4-difluorophenoxy)pyridin-4-yl)-5-(2-(methylsulfonyl)propan-2-yl)benzo[b]thiophene-2-carboxamide]
0.069 µM | > 50 µM | 0.04 µM | – | – | 0.0084 µM | CC(C)(c1ccc2sc(C(=O)Nc3cc(Cl)nc(Oc4cccc(Cl)c4)c3)cc2c1)S(C)(=O)=O [Example 80, N-(2-chloro-6-(3-chlorophenoxy)pyridin-4-yl)-5-(2-(methylsulfonyl)propan-2-yl)benzo[b]thiophene-2-carboxamide]
0.033 µM | > 50 µM | 0.005 µM | – | – | 0.0038 µM | CC(C)(c1ccc2sc(C(=O)Nc3cc(Cl)nc(Oc4cccc(OC(F)(F)F)c4)c3)cc2c1)S(C)(=O)=O [Example 81, N-(2-chloro-6-(3-(trifluoromethoxy)phenoxy)pyridin-4-yl)-5-(2-(methylsulfonyl)propan-2-yl)benzo[b]thiophene-2-carboxamide]
0.035 µM | > 50 µM | 0.0058 µM | – | – | 0.0041 µM | CC(C)(c1ccc2sc(C(=O)Nc3cc(Cl)nc(Oc4ccc(Cl)c(Cl)c4)c3)cc2c1)S(C)(=O)=O [Example 82, N-(2-chloro-6-(3,4-dichlorophenoxy)pyridin-4-yl)-5-(2-(methylsulfonyl)propan-2-yl)benzo[b]thiophene-2-carboxamide]
– | 9.6 µM | 5.5 µM | > 1.1 µM | > 1.1 µM | – | CC1(C)CC(Oc2cc(Cl)cc(NC(=O)c3cc4cc(C(C)(C)S(C)(=O)=O)ccc4s3)c2)CC(C)(C)N1 [Example 92, N-(3-chloro-5-((2,2,6,6-tetramethylpiperidin-4-yl)oxy)phenyl)-5-(2-(methylsulfonyl)propan-2-yl)benzo[b]thiophene-2-carboxamide]
– | 13.3 µM | 5.2 µM | > 1.1 µM | > 1.1 µM | – | CC(C)(c1ccc2sc(C(=O)Nc3cc(OCCN)cc(Oc4ccc(Cl)cc4)c3)cc2c1)S(C)(=O)=O [Example 94, N-(3-(2-aminoethoxy)-5-(4-chlorophenoxy)phenyl)-5-(2-(methylsulfonyl)propan-2-yl)benzo[b]thiophene-2-carboxamide]
– | 35.7 µM | 0.028 µM | 0.023 µM | 0.013 µM | – | CS(=O)(=O)Cc1ccc2sc(C(=O)Nc3cc(Cl)cc(-c4ccc(F)cc4F)c3)cc2c1 [Example 95, N-(5-chloro-2′,4′-difluoro-[1,1′-biphenyl]-3-yl)-5-((methylsulfonyl)methyl)benzo[b]thiophene-2-carboxamide]
